Drawing on patent US20230295152A1 (SENDA BIOSCIENCES, INC., priority 2019, published 2023), this text covers IC50 for 24 compounds.

In this test the target is T1, AHR (Homo sapiens, UniProt P35869).
T1 construct: other cell line with a DRE-luciferase reporter stably transfected; endogenous in cells; host or cells: HepG2 AhR-Lucia reporter cells
T1 sequence (P35869 11-848): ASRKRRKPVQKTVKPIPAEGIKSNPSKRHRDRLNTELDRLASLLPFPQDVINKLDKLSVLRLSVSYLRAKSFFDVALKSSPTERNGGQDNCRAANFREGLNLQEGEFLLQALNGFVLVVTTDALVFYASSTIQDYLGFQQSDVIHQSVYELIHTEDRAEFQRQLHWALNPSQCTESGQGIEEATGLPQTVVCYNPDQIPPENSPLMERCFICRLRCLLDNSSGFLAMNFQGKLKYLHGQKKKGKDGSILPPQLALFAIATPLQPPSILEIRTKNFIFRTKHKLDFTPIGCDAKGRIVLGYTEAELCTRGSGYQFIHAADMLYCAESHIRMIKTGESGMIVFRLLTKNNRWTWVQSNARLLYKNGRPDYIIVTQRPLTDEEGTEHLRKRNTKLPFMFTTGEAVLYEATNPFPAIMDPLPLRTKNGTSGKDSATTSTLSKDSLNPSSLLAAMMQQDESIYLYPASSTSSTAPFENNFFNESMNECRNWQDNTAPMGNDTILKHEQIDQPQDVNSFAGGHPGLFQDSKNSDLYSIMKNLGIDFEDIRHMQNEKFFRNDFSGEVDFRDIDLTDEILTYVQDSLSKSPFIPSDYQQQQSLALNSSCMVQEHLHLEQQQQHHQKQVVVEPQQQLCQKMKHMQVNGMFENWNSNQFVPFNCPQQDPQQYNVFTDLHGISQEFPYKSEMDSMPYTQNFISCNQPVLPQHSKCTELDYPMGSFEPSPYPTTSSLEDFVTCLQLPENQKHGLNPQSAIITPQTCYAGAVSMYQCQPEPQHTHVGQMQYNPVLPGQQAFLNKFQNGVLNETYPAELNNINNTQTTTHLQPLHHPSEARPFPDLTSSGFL
Briefly: DRE-Luciferase Reporter Assay, HepG2 AhR-Lucia reporter cells. It counts as cell-based. The settings on record: with AHR activating ligand at EC50, read-out: HepG2-Luc IC50. From the text:
AHR binds to Dioxin Responsive Elements (DRE) upstream of genes that it activates. One measure of AHR activity is activation of a reporter gene, such as luciferase, downstream of one or multiple DRE elements. Luciferase activity will reflect activation and inhibition of AHR in the cells expressing his reporter. 20000 Human HepG2 liver carcinoma—AhR-Lucia reporter cells or Human HT29 colon adenocarcinoma—AhR reporter cells or other cell line with a DRE-luciferase reporter stably transfected were plated in Eagle's Minimal Essential Medium, 10% heat-inactivated FBS, 1× non-essential amino acids Pen-Strep (10,000 U/mL) and Normocin (100 ug/mL) in plates (96-well, 384-well or other plates) and incubated overnight at 37° C. in a CO2 incubator and treated with and without AhR antagonists at a log dilution starting at 100 uM.
After 1 hr that cells were plated an AHR activating ligand, such as TCDD, kynurenine, ITE (2-(1H-indole-3-ylcarbonyl)-4-thiazolecarboxylic methyl ester), VAF347, BNF (beta-naphthoflavone), FICZ (6-formylindolo(3,2-b) carbazole) or other AHR ligands at their specific EC50 concentration, were added to the cells with or without AHR antagonist.
Cells were incubated for 24 or 48 hours or another time point and then, supernatant was analyzed for determination of luciferase activity as a read-out of the AHR activation or inhibition. Luciferase was measured with the commercial kit QUANTI-Luc™ assay solution kit from Invivogen following the manufacturer's instructions.
The level of luciferase with only agonist ligand added was the maximum signal while the luciferase with […] was the minimum signal. IC50 values were determined as the concentration which inhibits half of the luciferase activity.
Background: Reporter assays use an easily measured gene product as a stand-in for the process of interest.

As to `O=c1c2cc(-c3ccc(C(F)(F)F)nc3)nc(-c3cccnc3)c2ncn1C1CCS(=O)(=O)C1` (stereo not drawn) [Compound 106, 3-(1,1-dioxidotetrahydrothiophen-3-yl)-8-(pyridin-3-yl)-6-(6-(trifluoromethyl)pyridin-3-yl)pyrido[3,4-d]pyrimidin-4(3H)-one], the IC50 (in general, the concentration that gives 50% inhibition) is less than 100 nM.

As to `O=c1c2cc(-c3ccc(C(F)(F)F)nc3)nc(-c3cccnc3)c2ncn1[C@@H]1CCS(=O)(=O)C1` [Compound 107, (R)-3-(1,1-dioxidotetrahydrothiophen-3-yl)-8-(pyridin-3-yl)-6-(6-(trifluoromethyl)pyridin-3-yl)pyrido[3,4-d]pyrimidin-4(3H)-one], the concentration for half-maximal inhibition (IC50) is less than 100 nM.

In the case of `C[C@@H](O)Cn1cnc2c(-c3cnn(C)c3)nc(-c3ccc(C(F)(F)F)nc3)cc2c1=O` [Compound 108, (R)-3-(2-hydroxypropyl)-8-(1-methyl-1H-pyrazol-4-yl)-6-(6-(trifluoromethyl)pyridin-3-yl)pyrido[3,4-d]pyrimidin-4(3H)-one], the half-maximal inhibitory concentration (IC50) was less than 100 nM.

With `O=c1c2cc(-c3ccc(C(F)(F)F)nc3)nc(-c3cccnc3)c2ncn1-c1cccnc1` [Compound 118, 3,8-di(pyridin-3-y1)-6-(6-(trifluoromethyl)pyridin-3-yl)pyrido[3,4-d]pyrimidin-4(3H)-one], the IC50 is less than 100 nM.

As to `O=c1[nH]cnc2c(-c3cccnc3)nc(-c3ccc(C(F)(F)F)nc3)cc12` [Compound 119, 8-(pyridin-3-y1)-6-(6-(trifluoromethyl)pyridin-3-yl)pyrido[3,4-d]pyrimidin-4(3H)-one], the IC50 was less than 100 nM.

As for `O=c1c2cc(-c3ccc(C4CC4)nc3)nc(-c3cccnc3)c2ncn1C[C@@H](O)C(F)(F)F` [Compound 121, (R)-6-(6-cyclopropylpyridin-3-yl)-8-(pyridin-3-yl)-3-(3,3,3-trifluoro-2-hydroxypropyl)pyrido[3,4-d]pyrimidin-4(3H)-one], the 50% inhibitory concentration (IC50) is less than 100 nM.

On to `COC(=O)[C@H](C)n1cnc2c(-c3cccnc3)nc(-c3ccc(C(F)(F)F)nc3)cc2c1=O` [Compound 127, Methyl (S)-2-(4-oxo-8-(pyridin-3-yl)-6-(6-(trifluoromethyl)pyridin-3-yl)pyrido[3,4-d]pyrimidin-3(4H)-yl)propanoate], for which the IC50 was less than 100 nM.

As for `CN1CC(O)C(n2cnc3c(-c4cccnc4)nc(-c4ccc(Cl)cc4)cc3c2=O)C1` (stereo not drawn) [Compound 128, 6-(4-chlorophenyl)-3-(4-hydroxy-1-methylpyrrolidin-3-yl)-8-(pyridin-3-yl)pyrido[3,4-d]pyrimidin-4(3H)-one], the IC50 is less than 100 nM.

For `Cn1cc(-c2nc(-c3ccc(C(F)(F)F)nc3)cc3c(=O)n([C@@H]4COC[C@@H]4O)cnc23)cn1` [Compound 130, 3-((3R,4R)-4-hydroxytetrahydrofuran-3-yl)-8-(1-methyl-1H-pyrazol-4-yl)-6-(6-(trifluoromethyl)pyridin-3-yl)pyrido[3,4-d]pyrimidin-4(3H)-one], the IC50 was less than 100 nM.

`Cn1cc(-c2nc(-c3ccc(Cl)cc3)cc3c(=O)n([C@@H]4COC[C@@H]4O)cnc23)cn1` [Compound 131, 6-(4-chlorophenyl)-3-((3R,4R)-4-hydroxytetrahydrofuran-3-yl)-8-(1-methyl-1H-pyrazol-4-yl)pyrido[3,4-d]pyrimidin-4(3H)-one]: the IC50 was less than 100 nM.

On to `O=c1c2cc(-c3ccc(C(F)(F)F)nc3)nc(-c3cccnc3)c2ncn1C1CCCC1` [Compound 132, 3-cyclopentyl-8-(pyridin-3-yl)-6-(6-(trifluoromethyl)pyridin-3-yl)pyrido[3,4-d]pyrimidin-4(3H)-one], for which the 50% inhibitory concentration (IC50) was less than 100 nM.

On to `O=c1c2cc(-c3ccc(C(F)(F)F)nc3)nc(-c3cccnc3)c2ncn1-c1ccccc1` [Compound 133, 3-phenyl-8-(pyridin-3-yl)-6-(6-(trifluoromethyl)pyridin-3-yl)pyrido[3,4-d]pyrimidin-4(3H)-one], for which the IC50 was less than 100 nM.

On to `Cn1cc(-c2nc(-c3ccc(C4CC4)nc3)cc3c(=O)n(C[C@@H](O)C(F)(F)F)cnc23)cn1` [Compound 135, (R)-6-(6-cyclopropylpyridin-3-yl)-8-(1-methyl-1H-pyrazol-4-yl)-3-(3,3,3-trifluoro-2-hydroxypropyl)pyrido[3,4-d]pyrimidin-4(3H)-one], for which the IC50 was less than 100 nM.

With `Cn1cc(-c2nc(-c3ccc(C(F)(F)F)cn3)cc3c(=O)n([C@H]4COC[C@@H]4O)cnc23)cn1` [Compound 137, 3-((3S,4R)-4-hydroxytetrahydrofuran-3-yl)-8-(1-methyl-1H-pyrazol-4-yl)-6-(5-(trifluoromethyl)pyridin-2-yl)pyrido[3,4-d]pyrimidin-4(3H)-one], the half-inhibitory concentration (IC50) is less than 100 nM.

As to `Cn1cc(-c2nc(-c3ccc(C(F)(F)F)cn3)cc3c(=O)n([C@@H]4COC[C@H]4O)cnc23)cn1` [Compound 138, 3-((3R,4S)-4-hydroxytetrahydrofuran-3-yl)-8-(1-methyl-1H-pyrazol-4-yl)-6-(5-(trifluoromethyl)pyridin-2-yl)pyrido[3,4-d]pyrimidin-4(3H)-one], the IC50 was less than 100 nM.

With `C[C@@H](O)Cn1cnc2c(-c3cnn(C)c3)nc(-c3ccc(C(F)(F)F)cn3)cc2c1=O` [Compound 141, (R)-3-(2-hydroxypropyl)-8-(1-methyl-1H-pyrazol-4-yl)-6-(5-(trifluoromethyl)pyridin-2-yl)pyrido[3,4-d]pyrimidin-4(3H)-one], the IC50 was less than 100 nM.

On to `Cn1cc(-c2nc(-c3ccc(C(F)(F)F)cn3)cc3c(=O)n(C[C@@H](O)C(F)(F)F)cnc23)cn1` [Compound 146], for which the half-maximal inhibitory concentration (IC50) is less than 100 nM.

Take `Cn1cc(-c2nc(-c3ccc(C(F)(F)F)cn3)cc3c(=O)n(C[C@H](O)C(F)(F)F)cnc23)cn1` [Compound 147]: the IC50 is less than 100 nM.

For the compound `Cn1cc(-c2nc(-c3ccc(C(F)(F)F)cn3)cc3c(=O)n([C@@H]4COC[C@@H]4O)cnc23)cn1` [Compound 149, 3-((3R,4R)-4-hydroxytetrahydrofuran-3-yl)-8-(1-methyl-1H-pyrazol-4-yl)-6-(5-(trifluoromethyl)pyridin-2-yl)pyrido[3,4-d]pyrimidin-4(3H)-one], the concentration for half-maximal inhibition (IC50) was less than 100 nM.

Turning to `Cn1cc(-c2nc(-c3ccc(Cl)cc3)cc3c(=O)n([C@@H]4COC[C@H]4O)cnc23)cn1` [Compound 153, 6-(4-Chlorophenyl)-3-((3R,4S)-4-hydroxytetrahydrofuran-3-yl)-8-(1-methyl-1H-pyrazol-4-yl)pyrido[3,4-d]pyrimidin-4(3H)-one], the IC50 was less than 100 nM.

Take `C[C@@H](C(=O)O)n1cnc2c(-c3cccnc3)nc(-c3ccc(C(F)(F)F)nc3)cc2c1=O` [Compound 155, (S)-2-(4-oxo-8-(pyridin-3-yl)-6-(6-(trifluoromethyl)pyridin-3-yl)pyrido[3,4-d]pyrimidin-3(4H)-yl)propanoic acid]: the IC50 was greater than 500 nM.

For `C[C@@H](C(=O)N(C)C)n1cnc2c(-c3cccnc3)nc(-c3ccc(C(F)(F)F)nc3)cc2c1=O` [Compound 157, (S)—N,N-dimethyl-2-(4-oxo-8-(pyridin-3-yl)-6-(6-(trifluoromethyl)pyridin-3-yl)pyrido[3,4-d]pyrimidin-3(4H)-yl)propenamide], the IC50 was less than 100 nM.

`C[C@@H](C(=O)N[C@@H]1COC[C@H]1O)n1cnc2c(-c3cccnc3)nc(-c3ccc(C(F)(F)F)nc3)cc2c1=O` [Compound 158, (S)—N-((3R,4S)-4-hydroxytetrahydrofuran-3-yl)-2-(4-oxo-8-(pyridin-3-yl)-6-(6-(trifluoromethyl)pyridin-3-yl)pyrido[3,4-d]pyrimidin-3(4H)-yl)propenamide]: the half-maximal inhibitory concentration (IC50) fell in the range of 100 to 500 nM.

With `CC(C)(O)Cn1cnc2c(-c3cn[nH]c3)nc(-c3ccc(C(F)(F)F)cn3)cc2c1=O` [Compound 159, 3-(2-hydroxy-2-methylpropyl)-8-(1H-pyrazol-4-yl)-6-(5-(trifluoromethyl)pyridin-2-yl)pyrido[3,4-d]pyrimidin-4(3H)-one], the IC50 was less than 100 nM.
